We go through 23 compounds from ChEMBL document CHEMBL4118097, “Selective Inhibitors of Dual Leucine Zipper Kinase (DLK, MAP3K12) with Activity in a Model of Alzheimer's Disease” (J Med Chem, 2017).

The target in data set [1] is T1, Mitogen-activated protein kinase kinase kinase 12 (Homo sapiens, UniProt Q12852).
T1 sequence (Q12852 whole entry): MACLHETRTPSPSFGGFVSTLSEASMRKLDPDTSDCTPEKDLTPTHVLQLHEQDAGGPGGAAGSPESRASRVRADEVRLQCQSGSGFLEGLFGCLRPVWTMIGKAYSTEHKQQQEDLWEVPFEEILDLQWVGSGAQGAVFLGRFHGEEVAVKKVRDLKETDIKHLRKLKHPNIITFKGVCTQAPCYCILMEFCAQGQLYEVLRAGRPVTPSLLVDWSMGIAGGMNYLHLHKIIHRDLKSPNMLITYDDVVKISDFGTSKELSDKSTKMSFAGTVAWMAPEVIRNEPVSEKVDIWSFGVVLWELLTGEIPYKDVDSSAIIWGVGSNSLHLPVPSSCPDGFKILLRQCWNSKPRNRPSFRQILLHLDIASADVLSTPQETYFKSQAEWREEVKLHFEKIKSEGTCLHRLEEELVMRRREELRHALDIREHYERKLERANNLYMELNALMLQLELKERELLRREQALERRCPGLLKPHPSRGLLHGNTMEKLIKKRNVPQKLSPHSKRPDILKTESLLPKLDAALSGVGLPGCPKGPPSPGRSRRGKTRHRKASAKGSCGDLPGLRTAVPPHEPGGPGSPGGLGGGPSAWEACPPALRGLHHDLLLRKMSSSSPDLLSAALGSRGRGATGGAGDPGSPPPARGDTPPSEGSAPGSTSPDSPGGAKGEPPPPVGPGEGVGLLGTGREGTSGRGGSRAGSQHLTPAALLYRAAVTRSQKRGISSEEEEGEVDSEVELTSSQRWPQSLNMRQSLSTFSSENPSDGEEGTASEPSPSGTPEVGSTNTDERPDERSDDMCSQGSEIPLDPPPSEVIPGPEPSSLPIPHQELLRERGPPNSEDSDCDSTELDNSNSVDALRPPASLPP
Nature of the data set: Inhibition of doxycycline inducible human DLK transfected in HEK293 cells assessed as JNK phosphorylation after […] by Hoechst-33342 staining-based assay. The class given is cell-based.

Data set [2] deals with T1, Mitogen-activated protein kinase kinase kinase 12. The data set can be described thus: Binding affinity to N-terminally GST-tagged wild type human DLK (1 to 520 residues) expressed in sf21 insect cells using N-terminally His-tagged MKK4 K131M as substrate after 60 mins in presence of ATP by TR-FRET assay. (In general: Time-resolved FRET reads energy transfer from a long-lived donor to a nearby acceptor.)

In data set [3] the test system is MDR1 (P-gp), human. Nature of the data set: Permeability from apical side to basolateral side in MDCK1 cells harboring human MDR1. It counts as ADME, cell-based, Canis lupus familiaris. As to conditions: dog, MDCK-MDR1; read-out: permeability.
The subject of data set [4] is MDR1 (P-gp), human. Nature of the data set: Efflux ratio of permeability from basolateral to apical side over apical to basolateral side in MDCK cells harboring human MDR1. It counts as ADME, cell-based, Canis lupus familiaris. Conditions: dog.

A word on the IC50: it is the point on the concentration scale where inhibition reaches its midpoint. One may read the Ki as a measure of affinity in units of concentration, obtained from inhibition or displacement. Turning to `CC(=O)N1C[C@@H]2[C@H](C1)[C@H]2c1cc(-c2cnc(N)c(C(F)(F)F)c2)nn1C(C)C`, the IC50 in data set [1] was 302 nM. Further, the Ki in data set [2] was 6 nM.

For the compound `Nc1ncc(-c2cc([C@H]3[C@@H]4CN(C5COC5)C[C@@H]43)n(CC(F)(F)F)n2)cc1C(F)(F)F`, in data set [1], the IC50 came to 180 nM. For the same compound, in data set [2], the Ki is 16 nM.

On to `CC(C)(O)Cn1nc(-c2cnc(N)c(C(F)(F)F)c2)cc1[C@H]1[C@@H]2CN(C3COC3)C[C@@H]21`, for which the IC50 in data set [1] is 829 nM. Besides, the Ki in data set [2] was 23 nM.

For `CC(C)n1nc(-c2cnc(N)c(C(F)(F)F)c2)cc1C1CCN(C2COC2)CC1`, the IC50 in data set [1] is 1900 nM.

Take `Cc1c[nH]c2ncc(-c3cc(C4CCN(C5COC5)CC4)n(C(C)C)n3)cc12`: the IC50 in data set [1] was 303 nM. Besides, the inhibition constant Ki in data set [2] turned out to be 4 nM.

Regarding `CC(C)n1nc(-c2cnc(N)c(OC(F)F)c2)cc1[C@H]1[C@@H]2CN(C3COC3)C[C@@H]21`, in data set [1], the IC50 is 328 nM.

In general, efflux ratio refers to a quotient of directional permeabilities that is used to spot active efflux. On to `CC(C)n1nc(-c2cnc(N)c(C(F)(F)F)c2)cc1[C@H]1[C@@H]2CN(CC(F)F)C[C@@H]21`, for which the Papp A→B in the data set with MDR1 (P-gp), human [3] was 7.9 ×10⁻⁶ cm/s. In addition, the IC50 in data set [1] was determined as 611 nM. Further, the efflux ratio in the data set on MDR1 (P-gp), human [4] is 0.3.

As to `CC(C)n1nc(-c2cnc(N)c(Cl)c2)cc1C1CCN(C2COC2)CC1`, in data set [1], the IC50 came to 1700 nM.

As to `Cc1cc(-c2cc(C3CCN(C4COC4)CC3)n(C(C)C)n2)cnc1N`, the Ki in data set [2] was greater than 1600 nM.

Regarding `CC(C)n1nc(-c2cnc(N)c(C(F)F)c2)cc1[C@H]1[C@@H]2CN(C3COC3)C[C@@H]21`, in data set [1], the IC50 stood at 1200 nM.

As to `CC(C)n1nc(-c2cnc3[nH]cc(C(F)(F)F)c3c2)cc1C1CCN(C2COC2)CC1`, the IC50 in data set [1] was found to be 485 nM.

As for `CC(C)n1nc(-c2cnc3[nH]cc(Cl)c3c2)cc1C1CCN(C2COC2)CC1`, the IC50 in data set [1] is 574 nM.

In the case of `Cn1nc(-c2cnc(N)c(C(F)(F)F)c2)cc1[C@H]1[C@@H]2CN(C3COC3)C[C@@H]21`, the IC50 in data set [1] was 1800 nM. Moreover, the Ki in data set [2] stood at 82 nM.

For `Nc1ncc(-c2cc([C@H]3[C@@H]4CN(C5COC5)C[C@@H]43)n(CC3CC3)n2)cc1OC(F)(F)F`, in data set [1], the IC50 amounted to 304 nM. Also, in data set [2], the Ki came to 3 nM.

Take `Nc1ncc(-c2cc([C@H]3[C@@H]4CN(C5COC5)C[C@@H]43)n(CC3CCCC3)n2)cc1C(F)(F)F`: in data set [1], the IC50 was 202 nM. Moreover, the Ki in data set [2] is 9 nM.

For `CC(C)n1nc(-c2cnc3[nH]cc(F)c3c2)cc1C1CCN(C2COC2)CC1`, the IC50 in data set [1] was 2800 nM.

As for `CC(C)Cn1nc(-c2cnc(N)c(C(F)(F)F)c2)cc1[C@H]1[C@@H]2CN(C3COC3)C[C@@H]21`, in data set [1], the IC50 came out at 99 nM. For the same compound, the Ki in data set [2] was 3 nM.

As for `COc1cc(-c2cc([C@H]3[C@@H]4CN(C5COC5)C[C@@H]43)n(C(C)C)n2)cnc1N`, the IC50 in data set [1] worked out at 873 nM. In addition, in data set [2], the Ki was 7 nM.

As for `CCn1nc(-c2cnc(N)c(C(F)(F)F)c2)cc1[C@H]1[C@@H]2CN(C3COC3)C[C@@H]21`, the IC50 in data set [1] amounted to 406 nM. The Ki in data set [2] came to 3 nM.

For `CC(O)CN1C[C@@H]2[C@H](C1)[C@H]2c1cc(-c2cnc(N)c(C(F)(F)F)c2)nn1C(C)C` (some centres undefined), the IC50 in data set [1] was determined as 208 nM. The Ki in data set [2] came out at 4 nM.

For the compound `CC(C)n1nc(-c2cnc(N)c(C(F)(F)F)c2)cc1[C@H]1[C@@H]2CN(CC3COC3)C[C@@H]21`, in data set [1], the IC50 was 274 nM. Further, the Ki in data set [2] came to 5 nM.

As for `Cn1nc(-c2cnc(N)c(OC(F)(F)F)c2)cc1[C@H]1[C@@H]2CN(C3COC3)C[C@@H]21`, the IC50 in data set [1] came to 1300 nM. In addition, the Ki in data set [2] was 67 nM.

`COCCN1C[C@@H]2[C@H](C1)[C@H]2c1cc(-c2cnc(N)c(C(F)(F)F)c2)nn1C(C)C`: the IC50 in data set [1] stood at 265 nM. Besides, the Ki in data set [2] was 9 nM.
